The values below come from patent US11040981B2, “Pyrrolotriazine compounds and methods of inhibiting TAM kinases” (Syros Pharmaceuticals, Inc., priority 2017, dated 2021).

For orientation: IC50 means the concentration at which inhibition is half-maximal. Read a high IC50 as weaker potency.

The target of one assay is T1, FLT3 (Homo sapiens, UniProt P36888).
T1 sequence (P36888 27-993): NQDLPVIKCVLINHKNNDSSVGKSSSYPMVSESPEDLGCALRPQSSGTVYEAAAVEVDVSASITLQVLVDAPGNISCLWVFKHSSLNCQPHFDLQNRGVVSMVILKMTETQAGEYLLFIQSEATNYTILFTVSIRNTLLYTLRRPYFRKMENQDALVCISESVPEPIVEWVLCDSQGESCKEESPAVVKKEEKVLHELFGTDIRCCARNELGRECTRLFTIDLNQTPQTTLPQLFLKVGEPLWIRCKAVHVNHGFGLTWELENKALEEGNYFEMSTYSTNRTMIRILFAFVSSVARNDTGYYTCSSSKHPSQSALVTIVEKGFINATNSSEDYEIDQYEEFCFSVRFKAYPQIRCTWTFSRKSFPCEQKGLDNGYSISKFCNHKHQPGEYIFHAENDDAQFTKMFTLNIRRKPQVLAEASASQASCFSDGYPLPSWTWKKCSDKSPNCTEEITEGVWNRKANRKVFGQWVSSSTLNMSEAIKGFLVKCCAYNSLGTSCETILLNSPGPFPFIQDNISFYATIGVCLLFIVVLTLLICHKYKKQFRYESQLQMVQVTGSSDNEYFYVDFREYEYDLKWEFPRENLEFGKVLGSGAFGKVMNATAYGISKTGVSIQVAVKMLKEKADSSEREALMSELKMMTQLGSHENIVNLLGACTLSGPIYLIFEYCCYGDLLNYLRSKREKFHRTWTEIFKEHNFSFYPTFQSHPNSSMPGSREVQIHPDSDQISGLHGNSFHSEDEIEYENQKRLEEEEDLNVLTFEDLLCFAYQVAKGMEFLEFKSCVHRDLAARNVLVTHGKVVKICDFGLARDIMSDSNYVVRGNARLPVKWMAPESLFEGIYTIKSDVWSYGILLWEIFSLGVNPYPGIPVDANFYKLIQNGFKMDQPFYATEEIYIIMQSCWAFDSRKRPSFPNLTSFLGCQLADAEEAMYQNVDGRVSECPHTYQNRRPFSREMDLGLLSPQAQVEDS
The experiment in a line: TR-FRET kinase activity assay, FLT3. It is filed as biochemical. The following applies: ATP at Km, 60 minutes. The method in brief:
(§1)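 Recombinant human kinases, fluorescent peptide substrate, ATP at Km; 1 h RT, pH 7.5. EDTA-quenched, Eu antibody added, TR-FRET read; IC50 determined.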

For a further assay, the target named is T2, AXL (Homo sapiens, UniProt P30530).
T2 sequence (P30530 26-894): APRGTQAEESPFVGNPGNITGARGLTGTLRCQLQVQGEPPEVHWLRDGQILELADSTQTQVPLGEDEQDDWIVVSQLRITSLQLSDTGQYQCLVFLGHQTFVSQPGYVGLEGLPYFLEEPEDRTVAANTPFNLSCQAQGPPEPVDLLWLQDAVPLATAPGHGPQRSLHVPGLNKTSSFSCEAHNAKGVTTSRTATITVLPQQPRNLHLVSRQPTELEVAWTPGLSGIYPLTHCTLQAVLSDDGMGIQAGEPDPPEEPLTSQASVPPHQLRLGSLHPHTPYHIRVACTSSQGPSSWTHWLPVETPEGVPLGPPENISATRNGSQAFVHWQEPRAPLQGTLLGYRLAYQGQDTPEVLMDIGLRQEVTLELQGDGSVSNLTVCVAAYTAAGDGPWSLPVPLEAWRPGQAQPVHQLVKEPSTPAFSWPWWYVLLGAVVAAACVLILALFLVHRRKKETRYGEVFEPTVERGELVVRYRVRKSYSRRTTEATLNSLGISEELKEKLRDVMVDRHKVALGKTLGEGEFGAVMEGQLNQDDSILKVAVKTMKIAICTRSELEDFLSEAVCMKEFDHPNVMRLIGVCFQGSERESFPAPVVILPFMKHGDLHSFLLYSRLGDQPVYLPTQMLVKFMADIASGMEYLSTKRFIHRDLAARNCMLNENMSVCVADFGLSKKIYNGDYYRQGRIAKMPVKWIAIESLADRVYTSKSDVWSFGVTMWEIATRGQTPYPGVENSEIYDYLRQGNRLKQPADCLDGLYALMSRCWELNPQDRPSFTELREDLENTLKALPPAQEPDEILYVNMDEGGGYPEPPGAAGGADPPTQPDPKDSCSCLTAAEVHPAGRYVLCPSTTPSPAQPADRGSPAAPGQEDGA
As to the kind of experiment: TR-FRET kinase activity assay, AXL. As to conditions: ATP at Km, 60 minutes. It is filed as biochemical. The method in brief:
as §1

Turning to `CCCCC[C@H](C)Nc1ncc2c([C@H]3CC[C@@H](C(=O)O)CC3)cc([C@H]3CC[C@H](O)CC3)n2n1` [Compound 125, (cis)-4-(2-((S)-heptan-2-ylamino)-7-((trans)-4-hydroxycyclohexyl)pyrrolo[2,1-f][1,2,4]triazin-5-yl)cyclohexanecarboxylic acid], the concentration for half-maximal inhibition (IC50) fell in the range of 1000 to 10000 nM against FLT3 and 100 to 1000 nM against AXL.
In the same order, the values of `C[C@@H](CC(F)(F)F)Nc1ncc2c(-c3ccnc(N4CCOCC4)c3)cc([C@H]3CC[C@H](O)CC3)n2n1` [Compound 346] are no more than 100 nM and no more than 100 nM.
In the same order, the values of `CNC(=O)c1cc(-c2cc([C@H]3CC[C@H](O)CC3)n3nc(N[C@@H](C)COC(F)F)ncc23)ccn1` [Compound 411] are 100 to 1000 nM and no more than 100 nM.
In the same order, the values of `COC[C@H](C)Nc1ncc2c(-c3ccnc(NC4CCOC4)c3)cc([C@H]3CC[C@H](O)CC3)n2n1` (some centres unmarked) [Compound 418] are 100 to 1000 nM and no more than 100 nM.
As for `COC[C@H](C)Nc1ncc2c([C@H]3CCN(S(C)(=O)=O)C3)cc([C@H]3CC[C@H](O)CC3)n2n1` [Compound 376], the figures for the IC50 on FLT3 and against AXL were 1000 to 10000 nM and 100 to 1000 nM, respectively.
In the same order, the values of `COC[C@H](C)Nc1ncc2c(-c3cnn([C@H]4CCN(C(C)=O)C4)c3)cc([C@H]3CC[C@H](O)CC3)n2n1` [Compound 397] are 100 to 1000 nM and no more than 100 nM.
In the same order, the values of `CC(CC(F)F)Nc1ncc2c(-c3ccc(CN4CCN(C)CC4)cc3)cc(C3CCC(O)CC3)n2n1` (centres unmarked) [Compound 352] are no more than 100 nM and no more than 100 nM.
Consider `COC[C@H](C)Nc1ncc2c(-c3ccnc(O[C@@H]4CCNC4)c3)cc([C@H]3CC[C@H](O)CC3)n2n1` [Compound 401], for which the IC50 against FLT3 was 100 to 1000 nM; at AXL it was no more than 100 nM.
As for `CNOc1cc(-c2cc([C@H]3CC[C@H](O)CC3)n3nc(N[C@@H](C)COC)ncc23)ccn1` [Compound 361], the IC50 was 1000 to 10000 nM at FLT3 and no more than 100 nM at AXL.
For `COC[C@H](C)Nc1ncc2c(-c3cnn(C(C)(C)C(=O)N4C[C@@H](C)O[C@H](C)C4)c3)cc([C@H]3CC[C@H](O)CC3)n2n1` [Compound 367], in that order: 1000 to 10000 nM and no more than 100 nM.
In the same order, the values of `O[C@H]1CC[C@H](c2cc(-c3ccnc(N4CCOCC4)c3)c3cnc(N[C@H]4CCOC4)nn32)CC1` [Compound 362] are no more than 100 nM and no more than 100 nM.
In the same order, the values of `COC[C@H](C)Nc1ncc2c([C@@H]3CCCN(c4ccnc(C)n4)C3)cc([C@H]3CC[C@H](O)CC3)n2n1` [Compound 378] are 1000 to 10000 nM and 1000 to 10000 nM.
With `COC[C@H](C)Nc1ncc2c(-c3cnn([C@H]4CCNC4=O)c3)cc([C@H]3CC[C@H](O)CC3)n2n1` [Compound 348], the IC50 on FLT3 was 100 to 1000 nM; against AXL, no more than 100 nM.
With `C[C@@H](CN(C)C)Nc1ncc2c(-c3cnn(C4COC4)c3)cc([C@H]3CC[C@H](O)CC3)n2n1` [Compound 387], the IC50 against FLT3 and at AXL was 1000 to 10000 nM in each case.
Consider `CNC(=O)c1cc(-c2cc([C@H]3CC[C@H](O)CC3)n3nc(N[C@@H](C)CC(F)(F)F)ncc23)ccn1` [Compound 384], for which the IC50 against FLT3 and against AXL was no more than 100 nM in each case.
Consider `CC(C)Nc1ncc2c(-c3ccnc(N4CCOCC4)c3)cc([C@H]3CC[C@H](O)CC3)n2n1` [Compound 350], for which the 50% inhibitory concentration (IC50) at FLT3 and against AXL was no more than 100 nM in each case.
For `COC[C@H](C)Nc1ncc2c(-c3cnn([C@@H]4CCN(C(C)=O)C4)c3)cc([C@H]3CC[C@H](O)CC3)n2n1` [Compound 396], the results for the IC50 against FLT3 and against AXL were 100 to 1000 nM and no more than 100 nM, respectively.
Regarding `COC[C@H](C)Nc1ncc2c(-c3ccnc(O[C@H]4CCN(C)C4)c3)cc([C@H]3CC[C@H](O)CC3)n2n1` [Compound 400], the IC50 on FLT3 is 100 to 1000 nM; against AXL, no more than 100 nM.
For `CNC(=O)c1cc(-c2cc([C@H]3CC[C@H](O)CC3)n3nc(N[C@@H](C)COC(F)F)ncc23)cc(C)n1` [Compound 385], in that order: 1000 to 10000 nM and 100 to 1000 nM.
For `CCC(C)Nc1ncc2c(C)cc(C3CCC(O)CC3)n2n1` (centres unmarked) [Compound 123], in that order: 1000 to 10000 nM and 1000 to 10000 nM.
For `COC[C@H](C)Nc1ncc2c(-c3ccnc(N4CCS(=O)(=O)CC4)c3)cc([C@H]3CC[C@H](O)CC3)n2n1` [Compound 357], in that order: 100 to 1000 nM and no more than 100 nM.
Regarding `COC[C@H](C)Nc1ncc2c(-c3cnn(C[C@@H]4CCC(=O)N4)c3)cc([C@H]3CC[C@H](O)CC3)n2n1` [Compound 368], the IC50 is 100 to 1000 nM against FLT3 and no more than 100 nM at AXL.
In the same order, the values of `CNC(=O)c1cncc(-c2cc([C@H]3CC[C@H](O)CC3)n3nc(N[C@@H](C)COC(F)F)ncc23)c1` [Compound 398] are 1000 to 10000 nM and no more than 100 nM.
Regarding `COC[C@H](C)Nc1ncc2c([C@H]3CCCN(c4ccnc(C)n4)C3)cc([C@H]3CC[C@H](O)CC3)n2n1` [Compound 377], the half-inhibitory concentration (IC50) on FLT3 was 1000 to 10000 nM; against AXL it was 100 to 1000 nM.
For `OC1CCC(c2cc(-c3ccnc(N4CCOCC4)c3)c3cnc(NC4CCOC4)nn23)CC1` (centres unmarked) [Compound 356], in that order: no more than 100 nM and no more than 100 nM.
Regarding `COC[C@H](C)Nc1ncc2c(-c3ccnc(OC4COC4)c3)cc([C@H]3CC[C@H](O)CC3)n2n1` [Compound 358], the IC50 was 1000 to 10000 nM against FLT3 and no more than 100 nM on AXL.
In the same order, the values of `OC1CCC(c2cc(-c3ccnc(N4CCOCC4)c3)c3cnc(NCCC4CC4)nn23)CC1` (centres unmarked) [Compound 359] are no more than 100 nM and no more than 100 nM.
For `CC(=O)N1CCN(Cc2ccc(-c3cc(C4CCC(O)CC4)n4nc(NC(C)CC(F)(F)F)ncc34)cc2)CC1` (centres unmarked) [Compound 370], in that order: no more than 100 nM and no more than 100 nM.
Regarding `COC[C@H](C)Nc1ncc2c(-c3ccnc(O[C@H]4CCNC4)c3)cc([C@H]3CC[C@H](O)CC3)n2n1` [Compound 386], the IC50 was 100 to 1000 nM on FLT3 and no more than 100 nM on AXL.
In the same order, the values of `COC[C@H](C)Nc1ncc2c(-c3cnn(CS(C)(=O)=O)c3)cc([C@H]3CC[C@H](O)CC3)n2n1` [Compound 419] are 100 to 1000 nM and no more than 100 nM.
In the same order, the values of `CNc1cc(-c2cc([C@H]3CC[C@H](O)CC3)n3nc(N[C@@H](C)COC)ncc23)ccn1` [Compound 354] are 100 to 1000 nM and no more than 100 nM.
For `C[C@@H](CC(F)F)Nc1ncc2c(-c3cnn(C4COC4)c3)cc([C@H]3CC[C@H](O)CC3)n2n1` [Compound 351], the IC50 at FLT3 and on AXL was no more than 100 nM each time.
Consider `COC[C@H](C)Nc1ncc2c(-c3cnn([C@@H]4CO[C@H]5OCC[C@H]54)c3)cc([C@H]3CC[C@H](O)CC3)n2n1` [Compound 422], for which the IC50 was 100 to 1000 nM against FLT3 and no more than 100 nM against AXL.
For `COC[C@H](C)Nc1ncc2c(-c3cc([C@H]4CC[C@H](O)CC4)n4nc(N[C@@H](C)COC)ncc34)cc([C@H]3CC[C@H](O)CC3)n2n1` [Compound 349], in that order: 1000 to 10000 nM and 1000 to 10000 nM.
